“And” between values parts separate entries of the source, which are not always exact repeats. Identical values can stand only once. Marks after values point to notes of the source that are not given here.
Columns and labels:
[1] = system: disks of whole human skin; assay: Neosynthesis of the total epidermal lipids (14C-acetate incorporation) in organotypical model of whole human skin in culture; format: cell-based; conditions: incubation 18 hours
Experimental: (§1) The study is performed in vitro in an organotypical model of whole human skin in culture. Two techniques successively used: • measurement of the incorporation of acetate radiolabeled with carbon 14 into the neosynthesized epidermal lipids in toto; • analysis by thin layer chromatography to separate the main classes of neosynthesized radiolabeled epidermal lipids.
(§2) A fragment of human skin was collected after an abdominal plastic surgery-operation. This was performed on a person (subject I0129). Skin disks 8 mm in diameter were cut out using a sample punch.
(§3) The skin disks are placed in gondolas. The gondolas are placed in culture wells containing MCF medium, composed of MEM/M199 medium (3/4, 1/4; v/v) supplemented with penicillin (50 IU/ml), streptomycin (50 μg/ml), sodium bicarbonate (0.2%, w/v) and FCS (2%, v/v).
(§4) The test products are tested undiluted. They are placed at the center of each human skin disk, in a proportion of 10 mg/cm^2. The incubation medium for the human skin disks (MIF medium) is composed of MCF medium containing 1 μCi/ml of acetate labeled with carbon 14 (Amersham, specific activity: 57 mCi/mmol).
(§5) The lactic acid is used in topical application (10 mg/cm^2).
(§6) The human skin disks are incubated in the presence of the test products and the reference products for 18 hours at 37° C. in a humid atmosphere containing 5% CO2.
(§7) Each experimental condition is performed in quadruplicate.
At the end of the incubation, the human skin disks are rinsed thoroughly with PBS buffer. The epidermis of each skin disk is dissociated from the dermis by means of a controlled heat shock (MilliQ water, 2 min, 62° C.) The epidermises thus dissociated are digested with trypsin (ICN, 1%, w/v) overnight at 37° C. The cell dissociation is facilitated by the action of ultrasound. […]
The radioactivity of each sample, corresponding to the amount of acetate incorporated into the neosynthesized lipids, is measured by liquid scintillation. […]

[2] = system: disks of whole human skin; assay: Nature of the neosynthesized epidermal lipids (thin layer chromatography of 14C-labeled lipids) in whole human skin disks; format: cell-based; parameters: neosynthesis of cholesteryl sulfate, percentage of the control group: concentration or dose not given beside the values
Experimental: as §1, §2, §3, §4, §5, §6, §7
Starting with the samples of extracted lipids, 20 μl aliquots, corresponding to 3 700 cpm, are placed on silica 60 (Merck) chromatography plates. These plates are developed in three successive solvents: • 38/2/10 chloroform/acetone/methanol (v/v/v), • 40/5/5 chloroform/acetone/methanol (v/v/v), • 36/10/3/1 chloroform/ethyl acetate/ether/methanol (v/v/v/v).
This system makes it possible to separate the cholesteryl sulfate, the cerebrosides, the ceramides, the cholesterol and the tri-+diglycerides. The most polar lipids, referred to hereinbelow as “polar lipids”, remain on the base line.
The silica plates are then placed in exposure with films for autoradiography for 15 days (Amersham, Hyperfilm beta max).
The position of the various classes of lipids—polar lipids, cholesteryl sulfate, cerebrosides, ceramides 1 and 2, cholesterol and tri-+diglycerides—is determined using suitable standards.
The results are expressed as percentages of the radioactivity of the total lipids neosynthesized and deposited on the TLC.

[3] = percentage of the radiolabeled total lipids applied onto the TLC, mean of 4 disks, 18 hours
[4] = percentage of the radiolabeled total lipids applied onto the TLC, single disks, 18 hours

EGF: epidermal growth factor obtained from R&D Systems, reference product tested at 10 ng/ml
neosynthesis of the total epidermal lipids, percentage of the control group ([1]; topical 10 mg/cm2, EGF 10 ng/ml): 122%
neosynthesis of the total epidermal lipids, mean ([1]; mean of 4 disks, topical 10 mg/cm2, EGF 10 ng/ml): 4080.02 cpm/mg of epidermis
neosynthesis of the total epidermal lipids, individual skin disk ([1]; single disks of quadruplicate, compositions and lactic acid undiluted 10 mg/cm2 topical, EGF 10 ng/ml in medium): 3104.63 cpm/mg of epidermis and 5043.66 cpm/mg of epidermis and 3606.76 cpm/mg of epidermis and 4565.02 cpm/mg of epidermis
neosynthesis of ceramide 1, percentage of the control group ([2]; 18 hours): 120%
neosynthesis of ceramide 2, percentage of the control group ([2]; 18 hours): 155%
neosynthesis of cerebrosides, percentage of the control group ([2]; 18 hours): 125%
neosynthesis of cholesterol, percentage of the control group ([2]; 18 hours): 128%
neosynthesis of cholesteryl sulfate, percentage of the control group ([2]; 18 hours): 54%
neosynthesis of polar lipids, percentage of the control group ([2]; 18 hours): 119%
neosynthesis of ceramide 1, mean [2, 3]: 2.72%
neosynthesis of ceramide 2, mean [2, 3]: 3.00* %
neosynthesis of cerebrosides, mean [2, 3]: 3.87%
neosynthesis of cholesteryl sulfate, mean [2, 3]: 3.00* %
neosynthesis of polar lipids, mean [2, 3]: 38.23%
neosynthesis of tri- + diglycerides, mean [2, 3]: 45.10%
neosynthesis of ceramide 1, individual skin disk [2, 4]: 2.02% and 1.41% and 3.41% and 4.02%
neosynthesis of ceramide 2, individual skin disk [2, 4]: 3.81% and 2.38% and 2.74% and 3.05%
neosynthesis of cerebrosides, individual skin disk [2, 4]: 2.87% and 3.82% and 4.77% and 4.02%
neosynthesis of cholesterol, individual skin disk [2, 4]: 7.07% and 9.46% and 7.86% and 9.99%
neosynthesis of cholesteryl sulfate, individual skin disk [2, 4]: 2.31% and 3.69% and 3.44% and 2.57%
neosynthesis of polar lipids, individual skin disk [2, 4]: 57.27% and 34.42% and 27.69% and 33.53%
neosynthesis of tri- + diglycerides, individual skin disk [2, 4]: 42.67% and 44.82% and 50.08% and 42.83%
increase of the neosynthesis of ceramide 2 ([2]; versus control): 55%
reduction of the neosynthesis of cholesteryl sulfate ([2]; versus control): 46%

— patent US8147883B1, “Use of a plant oil product as an agent for increasing the synthesis of skin lipids” (Laboratoires Expanscience, priority 1999, dated 2012)
